# Data published in patent US6646137B1, “Non-peptide GnRH agents” (priority 1998, dated 2003).
# Biological target: T1, human GnRH receptor (Homo sapiens, UniProt P30968)
# T1 construct: The cDNA for the human GnRH receptor is cloned into the plasmid expression vector, pcDNA 3; expressed in transfected cells; host or cells: HEK 293 cells, stably transfected (pcDNA 3); membrane preparation
# T1 sequence (P30968 1-328): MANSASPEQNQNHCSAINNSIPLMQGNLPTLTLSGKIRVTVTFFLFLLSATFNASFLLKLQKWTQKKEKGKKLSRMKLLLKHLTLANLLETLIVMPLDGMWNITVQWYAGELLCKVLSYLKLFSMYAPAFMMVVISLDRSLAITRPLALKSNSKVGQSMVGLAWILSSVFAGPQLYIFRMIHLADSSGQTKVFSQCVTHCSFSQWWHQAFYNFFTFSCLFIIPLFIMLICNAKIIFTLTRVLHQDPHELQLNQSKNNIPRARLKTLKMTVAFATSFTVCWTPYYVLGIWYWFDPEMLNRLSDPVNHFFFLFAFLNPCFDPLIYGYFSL
# Test: GnRH receptor competitive radioligand binding assay (125I-GnRH-A, HEK 293 cell membranes)
# Conditions: compound at 10 μM; average of 1st and 2nd test; read-out: Average % Remaining (percent of specific binding remaining)
# From the text: The cDNA for the human GnRH receptor is cloned into the plasmid expression vector, pcDNA 3 (In Vitrogen), and stably transfected in HEK 293 cells (a cell line developed by Dr. Stuart Sealfon, Mount Sinai Medical School, New York, N.Y.).
# The human GnRH receptor (hGnRH) is cloned into pcDNA 3 (In Vitrogen), which provides high-level expression and a neomycin resistance marker. Lipofectamine (GIBCO BRL) is used to transfect HEK 293 cells with plasmid DNA. This method involves mixing the plasmid and reagent in serum-free medium, allowing DNA-liposome complexes to form, and overlaying cells with this solution. The HEK 293 cells are plated (seeded) on a 10-cm tissue culture dish at a density of 3×10^6 cells/dish the day before transfection. For each plate, 8 μg DNA plus 0.8 mL serum-free medium is mixed with 48 μL lipofectamine plus 0.8 mL serum-free medium, followed by incubation for 30 minutes at room temperature to allow DNA-liposome complexes to form. Serum-free medium is added to give a final volume of 6 mL/plate. The cells are rinsed twice with serum-free medium and overlayed with the DNA-liposome mixture. Five hours after transfection, an equal volume (6 mL) of medium containing 20% FBS (fetal bovine serum) is added. The cells are fed with fresh complete medium 18-24 hours after transfection. The cells are split 72 hours following transfection, at densities of 1:10 and 1:20. Stable tranformants are selected for by growth of the cells in antibiotic containing medium (G418, Sigma Chemical Company (also known as Geneticin)). Colonies are isolated and tested for receptor expression by radioligand binding and by measuring phosphoinositol turnover.
# HEK 293 cells stably transfected with human GnRH receptors as described above are grown in MEM (minimal essential medium, available from Sigma Chemical Company) supplemented with 0.1% G418 (Sigma Chemical Company). Cells are homogenized in buffer A containing 50 mM Tris (pH 74.), 0.32M sucrose, 2 mM ethyleneglycol-bis(β-aminoethyl)-N,N,N′,N′-tetraacetic acid (EGTA), 1 mM phenylmethylsulfonyl fluoride (PMSF), 5 μg/mL aprotinen, 5 μg/mL Pepstatin A, and 1 μg/mL leupeptin. The homogenized cells are centrifuged at 4° C. at 20,000×g for 25 minutes, resuspended in buffer A, and recentrifuged at 4° C. at 20,000×g for an additional 25 minutes. Total membrane protein is determined with a BCA kit (Pierce, Rockford, Ill.). Membranes are stored at −70° C. at a final membrane protein concentration of 5 mg/mL.
# The radioiodinated agonist analog of GnRH, [des-Gly^10, D-Ala^8]GnRH ethylamide (GnRH-A), is used as the labeled ligand. One μg of GnRH-A diluted in 0.1M acetic acid is added to an lodogen®-coated borosilicate glass tube pierce) containing 35 μL of 0.05M phosphate buffer (pH 7.4-7.6) and 1 mCi of Na[^125I]. The reaction mixture is vortexed and incubated for 1 minute at room temperature. After one minute, the mixture is vortexed again and allowed to incubate for an additional minute. Two mL of 0.5M acetic acid/1% BSA is added to the reaction tube, and the mixture is added to a C18 Sep-Pak cartridge. The cartridge is washed with subsequent washes of 5 mL H2O and 5 mL 0.5M acetic acid, and then eluted with 5×1 mL of 60% CH3CN/40% 0.5M acetic acid. The eluant is diluted with 3×volume of HPLC buffer A (0.1% TFA in H2O) and loaded onto a C18 column. The iodinated product is eluted over 20-25 minutes with a gradient of 25-100% CH3CN containing 0.1% TFA. The radioactive fractions (750 μL/fraction) are collected into clean polypropylene tubes containing 10 μL of 10% BSA. Fractions are assessed for biological activity by radioligand binding. Active fractions are utilized to screen the compounds for competitive binding assays.
# HEK 293 cell membranes stably expressing hGnRHR (human GnRH receptors) are diluted to 0.5-1.0 mg/mL with assay buffer containing 50 mM HEPES (pH 7.4), 1 mM ethylenediarninetetraacetic acid (EDTA), 2.5 mM MgCl2, and 0.1% BSA. […]
row,SMILES,remaining activity at 10 µM
1,CC(C)(C)c1ccc(CN(Cc2ccc(CNC(=N)N)cc2)C(=O)c2cccc3ccccc23)cc1 [Compound 1],57%
2,N=C(N)NCC1CCCC(CN(Cc2ccc(OCc3ccccc3)c(OCc3ccccc3)c2)C(=O)c2ccccc2)C1 (stereo not drawn) [Compound 62],52%
3,CCOC(=O)C(=O)N(Cc1cc2c(cc1C)C(C)(C)CCC2(C)C)CC1CCC(CNC(=N)N)CC1 (stereo not drawn) [Compound 94],57%
4,N=C(N)NCC1CCCC(CN(Cc2ccc3c(c2)OCCO3)C(=O)c2cccc3ccccc23)C1 (stereo not drawn) [Compound 65],55%
5,CC(C)(C)c1ccc(CN(CC2CCCC(CNC(=N)N)C2)C(=O)c2cccs2)cc1 (stereo not drawn) [Compound 43],50%
6,CCOc1cc(OCC)c(OCC)cc1CN(Cc1ccc(CNC(=N)N)cc1)C(=O)c1ccco1 [Compound 22],55%
7,CC(C)(C)c1ccc(CN(CC2CCC(CNC(=N)N)CC2)C(=O)c2cc3ccccc3s2)cc1 (stereo not drawn) [Compound 72],52%
8,Cc1cc2c(cc1CN(CC1CCC(CNC(=N)N)CC1)C(=O)COCc1ccccc1)C(C)(C)CCC2(C)C (stereo not drawn) [Compound 81],27%
9,N=C(N)NCc1ccc(CN(CC23CC=CCC2C2CC=CCC2O3)C(=O)c2cccc3ccccc23)cc1 (stereo not drawn) [Compound 4],40%
10,Cc1cc2c(cc1CN(CC1CCCC(CNC(=N)N)C1)C(=O)c1ccc3ccccc3c1)C(C)(C)CCC2(C)C (stereo not drawn) [Compound 54],54%
11,Cc1cc2c(cc1CN(CC1CCC(CNC(=N)N)CC1)C(=O)c1ccc(C#N)cc1)C(C)(C)CCC2(C)C (stereo not drawn) [Compound 98],58%
12,N=C(N)NCc1cccc(CN(CC23CC=CCC2C2CC=CCC2O3)C(=O)c2cccc3ccccc23)c1 (stereo not drawn) [Compound 38],57%
13,N=C(N)NCC1CCC(CN(Cc2cc3c(cc2Cl)OCO3)C(=O)c2ccco2)CC1 (stereo not drawn) [Compound 86],51%
14,Cc1cc2c(cc1CN(CCCCNC(=N)N)C(=O)c1ccco1)C(C)(C)CCC2(C)C [Compound 30],33%
15,CC(C)(C)c1ccc(CN(CC2CCC(CNC(=N)N)CC2)C(=O)c2ccco2)cc1 (stereo not drawn) [Compound 71],60%

# Same assay, conditions: compound at 10 μM; crude compounds; 125I-GnRH-A; lower value = higher inhibition; read-out: % Remaining 1st Test (percent of specific binding remaining)
row,SMILES,remaining activity at 10 µM
1,CC(C)(C)c1ccc(CN(Cc2ccc(CNC(=N)N)cc2)C(=O)c2cccc3ccccc23)cc1 [Compound 1],57%
2,N=C(N)NCC1CCCC(CN(Cc2ccc(OCc3ccccc3)c(OCc3ccccc3)c2)C(=O)c2ccccc2)C1 (stereo not drawn) [Compound 62],49%
3,CCOC(=O)C(=O)N(Cc1cc2c(cc1C)C(C)(C)CCC2(C)C)CC1CCC(CNC(=N)N)CC1 (stereo not drawn) [Compound 94],61%
4,N=C(N)NCC1CCCC(CN(Cc2ccc3c(c2)OCCO3)C(=O)c2cccc3ccccc23)C1 (stereo not drawn) [Compound 65],50%
5,CC(C)(C)c1ccc(CN(CC2CCCC(CNC(=N)N)C2)C(=O)c2cccs2)cc1 (stereo not drawn) [Compound 43],47%
6,CCOc1cc(OCC)c(OCC)cc1CN(Cc1ccc(CNC(=N)N)cc1)C(=O)c1ccco1 [Compound 22],52%
7,CC(C)(C)c1ccc(CN(CC2CCC(CNC(=N)N)CC2)C(=O)c2cc3ccccc3s2)cc1 (stereo not drawn) [Compound 72],49%
8,Cc1cc2c(cc1CN(CC1CCC(CNC(=N)N)CC1)C(=O)COCc1ccccc1)C(C)(C)CCC2(C)C (stereo not drawn) [Compound 81],28%
9,N=C(N)NCc1ccc(CN(CC23CC=CCC2C2CC=CCC2O3)C(=O)c2cccc3ccccc23)cc1 (stereo not drawn) [Compound 4],40%
10,Cc1cc2c(cc1CN(CC1CCCC(CNC(=N)N)C1)C(=O)c1ccc3ccccc3c1)C(C)(C)CCC2(C)C (stereo not drawn) [Compound 54],49%
11,Cc1cc2c(cc1CN(CC1CCC(CNC(=N)N)CC1)C(=O)c1ccc(C#N)cc1)C(C)(C)CCC2(C)C (stereo not drawn) [Compound 98],58%
12,N=C(N)NCc1cccc(CN(CC23CC=CCC2C2CC=CCC2O3)C(=O)c2cccc3ccccc23)c1 (stereo not drawn) [Compound 38],59%
13,N=C(N)NCC1CCC(CN(Cc2cc3c(cc2Cl)OCO3)C(=O)c2ccco2)CC1 (stereo not drawn) [Compound 86],56%
14,Cc1cc2c(cc1CN(CCCCNC(=N)N)C(=O)c1ccco1)C(C)(C)CCC2(C)C [Compound 30],29%
15,CC(C)(C)c1ccc(CN(CC2CCC(CNC(=N)N)CC2)C(=O)c2ccco2)cc1 (stereo not drawn) [Compound 71],54%

# Same assay, conditions: compound at 10 μM; crude compounds; 125I-GnRH-A; lower value = higher inhibition; read-out: % Remaining 2nd Test (percent of specific binding remaining)
row,SMILES,remaining activity at 10 µM
1,CC(C)(C)c1ccc(CN(Cc2ccc(CNC(=N)N)cc2)C(=O)c2cccc3ccccc23)cc1 [Compound 1],57%
2,N=C(N)NCC1CCCC(CN(Cc2ccc(OCc3ccccc3)c(OCc3ccccc3)c2)C(=O)c2ccccc2)C1 (stereo not drawn) [Compound 62],55%
3,CCOC(=O)C(=O)N(Cc1cc2c(cc1C)C(C)(C)CCC2(C)C)CC1CCC(CNC(=N)N)CC1 (stereo not drawn) [Compound 94],52%
4,N=C(N)NCC1CCCC(CN(Cc2ccc3c(c2)OCCO3)C(=O)c2cccc3ccccc23)C1 (stereo not drawn) [Compound 65],59%
5,CC(C)(C)c1ccc(CN(CC2CCCC(CNC(=N)N)C2)C(=O)c2cccs2)cc1 (stereo not drawn) [Compound 43],53%
6,CCOc1cc(OCC)c(OCC)cc1CN(Cc1ccc(CNC(=N)N)cc1)C(=O)c1ccco1 [Compound 22],57%
7,CC(C)(C)c1ccc(CN(CC2CCC(CNC(=N)N)CC2)C(=O)c2cc3ccccc3s2)cc1 (stereo not drawn) [Compound 72],54%
8,Cc1cc2c(cc1CN(CC1CCC(CNC(=N)N)CC1)C(=O)COCc1ccccc1)C(C)(C)CCC2(C)C (stereo not drawn) [Compound 81],25%
9,N=C(N)NCc1ccc(CN(CC23CC=CCC2C2CC=CCC2O3)C(=O)c2cccc3ccccc23)cc1 (stereo not drawn) [Compound 4],40%
10,Cc1cc2c(cc1CN(CC1CCCC(CNC(=N)N)C1)C(=O)c1ccc3ccccc3c1)C(C)(C)CCC2(C)C (stereo not drawn) [Compound 54],59%
11,Cc1cc2c(cc1CN(CC1CCC(CNC(=N)N)CC1)C(=O)c1ccc(C#N)cc1)C(C)(C)CCC2(C)C (stereo not drawn) [Compound 98],58%
12,N=C(N)NCc1cccc(CN(CC23CC=CCC2C2CC=CCC2O3)C(=O)c2cccc3ccccc23)c1 (stereo not drawn) [Compound 38],55%
13,N=C(N)NCC1CCC(CN(Cc2cc3c(cc2Cl)OCO3)C(=O)c2ccco2)CC1 (stereo not drawn) [Compound 86],45%
14,Cc1cc2c(cc1CN(CCCCNC(=N)N)C(=O)c1ccco1)C(C)(C)CCC2(C)C [Compound 30],37%
15,CC(C)(C)c1ccc(CN(CC2CCC(CNC(=N)N)CC2)C(=O)c2ccco2)cc1 (stereo not drawn) [Compound 71],65%
